Source: PubChem BioAssay (NCI)
Where “and” joins values, the source holds several entries; their conditions need not be identical. Equal entries are not always repeated.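 Dose response: 5 concentrations. Exposure: 48 h. Format: 96-well plates. Endpoint: linear interpolation; highest concentration if not reached. Here, GI50 denotes the concentration required for 50% inhibition of growth. At the TGI there is no net growth.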

Experiments:
Experiment in all cases: NCI-60 cell line screen, 48 h
[1] = tested on: M19-MEL melanoma
[2] = tested on: SNB-78 CNS
[3] = tested on: HOP-18 NSCLC
[4] = tested on: KM20L2 colon
[5] = tested on: DMS 114 small cell lung
[6] = tested on: LXFL 529 NSCLC
[7] = tested on: XF 498 CNS
[8] = tested on: RXF-631 renal
[9] = tested on: MDA-N

Row | SMILES | TGI [1] [µM] | TGI [2] [µM] | TGI [3] [µM] | TGI [4] [µM] | TGI [5] [µM] | TGI [6] [µM] | TGI [7] [µM] | TGI [8] [µM] | other results
1 | O=C1c2cccc([N+](=O)[O-])c2C(=O)c2nccnc21 | 0.276 | 7.38 | 3.06 | 6.16 | 2.3 | – | – | – | –
2 | O=C(CN(Cc1ccccc1)Cc1ccccc1)N1CCc2c([nH]c3ccccc23)C1c1cccnc1 (stereo unspecified) | 31.4 | > 100 | > 100 | 25.5 | 72.8 | > 100 | 65.8 | – | –
3 | CN1C(c2ccccc2)CC(C)(O)CC1c1ccccc1 (stereo unspecified) | > 100 | > 100 | – | > 100 | > 100 | > 100 | – | > 100 | –
4 | Cc1ccccc1C=NC12CC3CC(CC(C3)C1)C2 | > 100 | > 100 | > 100 | > 100 | > 100 | > 100 | – | > 100 | –
5 | Cc1cc(Cl)ccc1NC(=O)CC1SC(=NC(=O)c2ccccc2Cl)NC1=O (stereo unspecified) | 35.8 | 50.9 | – | > 100 | 41.8 | 32.3 | 32.7 | – | –
6 | CC[O-].CC[O-].COc1ccc(C(=O)[CH-]C(C)=O)cc1OC.COc1ccc(C(=O)[CH-]C(C)=O)cc1OC.[Ti+4] | – | > 100 | > 100 | > 100 | > 100 | > 100 | – | > 100 | GI50 [6]: 38.7 µM; GI50 [2]: 72.2 µM; GI50 [8]: 49.4 µM; GI50 [3]: 29.8 µM; GI50 [4]: 53.1 µM; GI50 [5]: > 100 µM
7 | CCc1cccc(C)c1N1C(=O)C(=O)C(c2nc3ccccc3o2)/C(=N/NC(=S)NN)C1=O (stereo unspecified) | > 100 | > 100 | – | > 100 | > 100 | > 100 | > 100 | > 100 | –
8 | C=C1C[C@@H](O)[C@@H](Br)C(C)(C)[C@]12CCC(C)(Br)C(Cl)C2 (stereo partly specified) | – | – | – | – | – | – | – | – | GI50 [9]: 17.7 µM; TGI [9]: > 50 µM and 36.2 µM
9 | O=CC1CCC=CC1NC(=O)OCc1ccccc1 (stereo unspecified) | > 100 | > 100 | > 100 | – | 53.6 | > 100 | > 100 | – | –
10 | N#CC(C(=O)/C(=N/NC(=O)c1ccccc1O)C(C#N)c1ccc(Br)cc1)c1ccc(Br)cc1 (stereo unspecified) | 25.2 | 25.5 | 20.5 | 29.2 | 33 | 13.4 | 26.6 | 28.5 | –
11 | CCOC(=O)NC(=O)c1cn(CCCCCCCCCCC(=O)NCCCN2CCN(CCCNC(=O)CCCCCCCCCCn3cc(C(=O)NC(=O)OCC)c(=O)[nH]c3=O)CC2)c(=O)[nH]c1=O | > 100 | > 100 | > 100 | > 100 | > 100 | > 100 | > 100 | – | –
12 | O=C1CC(C(=O)O)Cc2c(Br)ccc(O)c21 (stereo unspecified) | – | – | – | – | – | – | – | – | TGI [9]: > 100 µM
13 | O=C(Nc1ccccc1)n1cc(-c2ccccn2)c(N2CCOCC2)n1 | > 100 | > 100 | > 100 | 8.69 | > 100 | > 100 | > 100 | – | –
14 | O=C(CCC(=O)Nc1ccc(Cl)cc1)CC(=O)c1ccc2ccccc2c1 | > 100 | > 100 | > 100 | > 100 | > 100 | > 100 | – | > 100 | –
15 | O=C[C@]12CC=C3OC4OC5(CCCCC5)OC4[C@H]3[C@H]1C(=O)C=CC2=O (stereo partly specified) | 54.5 | 29.4 | – | – | 50.8 | 39.8 | 27.8 | > 100 | –
16 | CC1NC(C(=O)O)Cc2cc(O)c(O)cc21 (stereo unspecified) | – | – | – | – | – | – | – | – | TGI [9]: > 100 µM
17 | N#CC(C#N)=Cc1ccc(C(O)P(=O)(O)O)cc1 (stereo unspecified) | > 100 | > 100 | > 100 | > 100 | > 100 | > 100 | > 100 | > 100 | –
18 | CC(=O)NC(CS)C(=O)O (stereo unspecified) | – | – | – | – | – | – | – | – | TGI [9]: > 100 µM
19 | COC(=O)CC1C2(C)C3=C(C)C(c4ccoc4)CC3OC2C2OC(=O)C3(C)C=CC(=O)C1(C)C23 (stereo unspecified) | – | – | – | – | – | – | – | – | TGI [9]: 2.93 µM

Row | SMILES | TGI [1] [µM] | TGI [2] [µM] | TGI [3] [µM] | TGI [4] [µM] | TGI [5] [µM] | TGI [6] [µM] | TGI [7] [µM] | TGI [8] [µM] | other results
20 | NC(CP(=O)(O)O)C(=O)O (stereo unspecified) | – | – | – | – | – | – | – | – | TGI [9]: > 100 µM
21 | N#CCCN(C1=NN(C(=O)CC(=O)Nc2ccc(Cl)cc2)C(c2ccccc2)C1)c1ccc(Cl)cc1 (stereo unspecified) | > 100 | > 100 | > 100 | > 100 | > 100 | > 100 | > 100 | > 100 | –
22 | O=c1c2ccccc2nc2n1CCc1c-2[nH]c2cc3c(cc12)OCO3 | – | – | – | – | – | – | – | – | TGI [9]: > 25 µM
23 | Cn1cnc([N+](=O)[O-])c1Sc1nc2ccccc2o1 | 23.7 | 32.3 | 1.36 | 10.1 | 4.89 | 12.9 | 19.7 | 15.1 | –
24 | COC(=O)C(=NNc1ccccc1[N+](=O)[O-])C(=O)OC | > 100 | – | > 100 | > 100 | – | > 100 | > 100 | – | –
25 | Cn1nc(-c2ccccc2)c2c(/C=C/c3ccc(Cl)cc3)onc2c1=O | > 100 | – | 26.8 | 69.5 | > 100 | > 100 | 43.6 | > 100 | –
26 | CC12CC/C(=N/NC(N)=O)C3C1CCCC32 | > 100 | – | > 100 | > 100 | > 100 | > 100 | – | > 100 | –
27 | CN(C)CCCOc1ccc(/C=C2/CCC/C(=C/c3ccc(OCCCN(C)C)cc3)C2=O)cc1 | – | 9.06 | 12.3 | 0.537 | 3.11 | 7.12 | – | – | –
28 | O=C(Nc1ccn(C2CC(I)C(COC(c3ccccc3)(c3ccccc3)c3ccccc3)O2)c(=O)n1)c1ccccc1 (stereo unspecified) | – | – | – | – | – | – | – | – | TGI [9]: 14.6 µM
29 | COc1ccc(NC(=S)C#N)cc1 | – | – | – | – | – | – | – | – | TGI [9]: > 100 µM
30 | N.N.N.N.N.N#Cc1nn[n-]n1.[Cl-].[Co+3] | – | > 100 | > 100 | > 100 | – | > 100 | – | – | GI50 [6]: > 100 µM; GI50 [2]: > 100 µM; GI50 [3]: > 100 µM; GI50 [4]: > 100 µM
31 | CCC1(OC(=O)CNC)C(=O)OCc2c1cc1n(c2=O)Cc2cc3ccccc3nc2-1 (stereo unspecified) | 0.823 | > 86.9 | 0.812 | 2.05 | – | 3.64 | – | 0.0575 | TGI [9]: 0.386 µM
32 | COC(=O)C(=O)C(C#N)c1cccc(Cl)c1 (stereo unspecified) | > 100 | > 100 | > 100 | > 100 | – | > 100 | > 100 | – | –
33 | Cc1cc2nc3c(=O)[nH]c(=O)nc-3n(CC(O)C(O)C(O)CO)c2cc1N (stereo unspecified) | > 100 | > 100 | > 100 | – | > 100 | > 100 | – | > 100 | –
34 | CC12CCCC(C#N)(C1)OC2=O (stereo unspecified) | > 100 | > 100 | – | > 100 | – | > 100 | > 100 | > 100 | –
35 | CCOC(=O)C1=C(C)NC(C)=C(C(=O)OCCNC(=O)c2ccc(N=[N+]=[N-])cc2)C1c1ccccc1C(F)(F)F (stereo unspecified) | – | – | – | – | – | – | – | – | TGI [9]: 21.5 µM
36 | O=C(O)CCC(=O)Oc1ccc(O)c2c1CCCC2=O | > 100 | > 100 | > 100 | > 100 | > 100 | > 100 | 5.84 | – | –
37 | CC(=O)n1nnc2ccc([N+](=O)[O-])cc21 | > 100 | > 100 | > 100 | > 100 | > 100 | > 100 | > 100 | – | –
